Experimental data published in PMC9190012, “Heparin activation of protein Z-dependent protease inhibitor (ZPI) allosterically blocks protein Z activation through an extended heparin-binding site” (The Journal of Biological Chemistry, 2022).
Changes are numbered by the printed parent chain.

Legend:
NBD-ZPI = biological target: T1, NBD-ZPI (Homo sapiens, UniProt Q9UK55, C190A/C285S/K260C); experiment: Competitive binding titrations of NBD-ZPI–PZ complex with heparins (quenching of NBD fluorescence); conditions: competitive titration of NBD-ZPI–PZ complex (50 nM ZPI/62 nM PZ), 0.1 M NaCl buffer; read-out: ZPI–heparin KD,H
T1 construct: made in house; host or cells: Escherichia coli
T1 sequence (Q9UK55 22-444 C190A/K260C/C285S): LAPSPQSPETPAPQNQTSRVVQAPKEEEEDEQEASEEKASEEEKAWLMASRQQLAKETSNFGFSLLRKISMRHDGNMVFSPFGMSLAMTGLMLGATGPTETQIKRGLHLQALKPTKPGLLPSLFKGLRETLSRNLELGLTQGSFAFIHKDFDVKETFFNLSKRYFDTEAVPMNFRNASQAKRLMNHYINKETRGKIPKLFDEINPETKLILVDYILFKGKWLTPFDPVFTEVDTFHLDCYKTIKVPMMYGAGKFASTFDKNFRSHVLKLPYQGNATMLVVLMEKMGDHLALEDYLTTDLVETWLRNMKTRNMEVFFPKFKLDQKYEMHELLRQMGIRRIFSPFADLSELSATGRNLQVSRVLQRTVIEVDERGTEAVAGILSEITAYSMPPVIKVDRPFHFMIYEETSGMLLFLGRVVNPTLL
Experimental: Equilibrium binding of heparin to NBD-ZPI was measured by competitive binding titrations in which heparins of various lengths were titrated into NBD-ZPI (50 nM) complexed with a molar excess of PZ (62 nM) in a lower ionic strength buffer (0.1 M NaCl) and heparin binding followed by the quenching of NBD-ZPI–PZ complex fluorescence. Titrations were computer fit by the competitive binding equation, ΔFmax−ΔFobs/ΔFmax=Fobs−F∞/F0−F∞=[ZPI]0+[PZ]0+KD,PZ×(1+[H]0/KD,H)−([ZPI]0+[PZ]0+KD,PZ×(1+[H]0/KD,H))^2−4×[ZPI]0×[PZ]0/[ZPI]0+[PZ]0+KD,PZ−([ZPI]0+[PZ]0+KD,PZ)^2−4×[ZPI]0×[PZ]0
in which ΔFobs is the observed change in fluorescence of PZ complexed and uncomplexed NBD-ZPI before (Fo) and after heparin addition (Fobs), ΔFmax is the maximal fluorescence change upon reaching the end point fluorescence of NBD-ZPI after complete dissociation of PZ (F∞), [ZPI]o, [PZ]o, and [H]o are total concentrations of NBD-ZPI, PZ, and heparin, respectively, and KD,PZ and KD,H are dissociation constants for the NBD-ZPI–PZ and the NBD-ZPI–heparin interactions, respectively. […] In fitting data to the aforementioned equation, KD,PZ was fixed at the value determined by titration of NBD-ZPI with PZ in the absence of heparin, and KD,H was the fitted parameter.

WT ZPI = biological target: T2, WT ZPI (Homo sapiens, UniProt Q9UK55); experiment: Direct heparin binding titrations monitored by intrinsic protein fluorescence quenching
T2 construct: made in house; host or cells: Escherichia coli
T2 sequence (Q9UK55 22-444): T1 sequence (Q9UK55 22-444 C190A/K260C/C285S) with A169C, C239K, S264C
Experimental: (§1) Fluorescence emission spectra of NBD-ZPI (50–100 nM) were measured in the absence or the presence of PZ and heparin in 20 mM Tris buffer (pH 7.4), 0.2 M NaCl, 0.1% PEG 8000, 1 mg/ml bovine serum albumin (BSA), and 2.5 mM CaCl2 with an SLM 8000 spectrofluorometer with excitation at 480 nm over the emission range of 500 to 600 nm. Intrinsic protein fluorescence of WT and mutant ZPIs (200 nM to 1 μM) was measured in the same buffer without BSA, with excitation at 280 nm over the emission range of 300 to 400 nm. Emission was monitored in 5-nm steps with 5 to 10 s of integrations per step. Spectra were obtained in triplicate and averaged. Buffer, buffer plus PZ, or buffer plus heparin background spectra were subtracted, and dilution corrections were made for added PZ or heparin (<10%). Direct equilibrium binding of heparin to ZPI was measured by titrations of unlabeled WT and variant ZPIs (0.2–1 μM) with heparin monitored by the quenching of intrinsic protein fluorescence accompanying heparin binding at excitation and emission wavelengths of 280 and 340 nm, respectively. Titrations were computer fit by the aforementioned quadratic binding equation with [H]o replacing [PZ]o and KD,H replacing KD,PZapp.

[1] = biological target: T3, helix C site mutant ZPI (K104A/R105A/K113A/K116A) (Homo sapiens, UniProt Q9UK55, K125A/K134A/K137A/R126A); experiment: as above; conditions: 1 μM helix C site mutant ZPI; quenching end point fixed at WT
T3 construct: made in house; host or cells: Escherichia coli
T3 sequence (Q9UK55 22-444 K125A/R126A/K134A/K137A): T1 sequence (Q9UK55 22-444 C190A/K260C/C285S) with K104A, R105A, K113A, K116A, A169C, C239K, S264C
Experimental: as §1

Kd (NBD-ZPI): 32.4 ± 1.9 µM
Kd (WT ZPI; 200 nM WT ZPI, 0.2 M NaCl buffer, pH 7.4, 25 °C): 123 ± 23 µM
maximal quenching of protein fluorescence (WT ZPI; fit of titration by quadratic binding equation): −15 ± 1%
quenching of the protein fluorescence emission spectrum (WT ZPI; near saturating levels of heparin (400 μM H5 or 4 μM H72)): 15 to 20%
Kd [1]: 1900 ± 200 µM
Structure (SMILES): CO[C@H]1O[C@H](COS(=O)(=O)O)[C@@H](O[C@@H]2O[C@@H](C(=O)O)[C@@H](O[C@H]3O[C@H](COS(=O)(=O)O)[C@@H](O[C@@H]4O[C@H](C(=O)O)[C@@H](O[C@H]5O[C@H](COS(=O)(=O)O)[C@@H](O)[C@H](O)[C@H]5NS(=O)(=O)O)[C@H](O)[C@H]4O)[C@H](OS(=O)(=O)O)[C@H]3NS(=O)(=O)O)[C@H](O)[C@H]2OS(=O)(=O)O)[C@H](O)[C@H]1NS(=O)(=O)O [H5, fondaparinux]
